In series [1] the test system is Male cockroaches (Blattela germanica). Kind of series: Y-tube olfactometer bioassay, test compound in mineral oil on filter paper. As to conditions: 0.5% w/v solution in mineral oil; mean of 3 replicates; 65% or more = significantly attractive (*), 35% or less = significantly repellent (**). The class given is in vivo. The text has this:
The German cockroach (Blattela germanica) is one of the most difficult cockroach species to control in homes and was used to illustrate the invention. […] Since the cockroaches never contact the test sample, their response is strictly to the molecules in the air stream.
(§1) Olfactometer Bioassay: The Y-tube bioassay apparatus was similar to that described by Vander Meer et al. (J. Chem. Ecol., 14: 825-838 (1988)). Compressed air (breathing-air quality) was passed into the two choice arms at 0.2 l/min for a total flow of 0.4 l/min. Flow rates were adjusted and controlled by two flow meters (Omega Engineering, Inc.). All tubing carrying the air was either copper or Teflon. Prior to evaluating treatment samples, a positive standard was put through the bioassay procedure. […] Test samples (10.0 μl) and the solvent blank (mineral oil, 10.0 μl) were applied to filter paper strips (0.3×1.0 cm, Whatman No. 1) and then each was placed into one of the two choice arms. Male cockroaches (Blattela germanica) were prepared for their introduction into the olfactometer by placing them in a Teflon tube (3 cm×0.8 cm) that had one end blocked with a piece of copper mesh screen. The open end of tube was closed with a lightly attached piece of tape. The cockroaches were introduced individually by removing the tape and quickly inserting the Teflon tube into the entrance arm of the olfactometer. […] The initial choice of the cockroach was recorded. The cockroach was removed and the process was repeated 10 times with the same test and blank samples. The 10 choices usually required less than 5 minutes to complete. After each set of 10 cockroaches had made their choice, the olfactometer was rinsed with acetone, dried, and reassembled for the next test. Each sample was retested with the same cockroaches, but with the sample and control in reverse positions. The sum of the results from the two tests represented one replicate. This procedure minimized bias inherent in the apparatus. A null hypothesis of equal numbers of cockroaches in each arm was tested with chi-square analysis. […] Results in-between were neutral.
The diameter of the Y part of the olfactometer provided a close fit for the cockroach, thus keeping it in the center of the walkway.

The test system is the same in series [2]. Kind of series: Y-tube olfactometer bioassay of controlled release pellets aged in a fume hood. In kind it is in vivo. As to conditions: for Percent Response: mean of 3 replicates; for activity in the olfactometer (in words): charcoal as the absorbent, after one hour in the fume hood.
Excerpt: as §1, with “procedure. The standard was initially an attractive food material (grape flavoring concentrate used at 0.33%) and later 0.5% (w/v) methyl tiglate, one of the compounds of the present invention, in white, light mineral oil (Aldrich Chemical Co.).” for “procedure.”
Controlled Release Formulations: Four esters found to be significant cockroach attractants were selected for evaluation in controlled release formulations-developed by BioGuard, Inc. Six controlled release formulations from BioGuard were evaluated in the olfactometer. The attractants were methyl tiglate, butyl hexanoate, propyl propanoate, and butyl heptanoate. The attractants were absorbed to either coconut shell charcoal pellets or potassium substituted crystalline zeolite pellets, and then coated with water soluble methylcellulose. The powdered methyl cellulose was dissolved in 80° C. water until saturation, cooled to approx 25° C., the pellets immersed into the solution for a 30 sec, and removed and rapidly air dried with 30° C. pre-dried air. The end products were pellets (charcoal=2 mm×4 mm dia.; molecular sieve=4 mm×1.5 mm dia.). […] A single pellet was used in place of the filter paper described above. The control side was left blank.

Series [3] relates to German roaches (B. germanica). As to the kind of experiment: Two-harborage arena bioassay of sustained release polymer formulations. In kind it is in vivo. The note with it: formulated with Santoprene; counted after 24 hours. An excerpt: Evaluation of sustained release formulations: Three cockroach attractants (methyl tiglate, butyl heptanoate, and propyl proprionate) were formulated in one or more polymer formulations (Urethane, Pellethane, Santoprene, and/or Polyethylene) as indicated in Table 4.A sweater box (1.5×2.0×0.5 ft) provided the test arena. The sides of the arena were coated with a blend of mineral oil and Vaseline petroleum jelly. The tops of two 8 oz paper ice cream cups were tapped to the arena floor with masking tape and, prior to the addition of the test cockroaches, inverted cups without holes were fixed to the tapped lids. Twenty-five laboratory reared late stage nymphs or adult male German roaches (B. germanica), starved for 72 hrs, were added to the arena and allowed to calm down (ca. 1 hour). The starting inverted ice cream cups were carefully removed and each ice cream cup top was then supplied with a water tube (1.5 ml scintillation vial with water and stoppered with cotton), one lab chew food pellet, and either a test attractant polymer formulation or the corresponding polymer blank control. […] The cups were oriented so that the holes were facing each other. The number of roaches that sought harborage in the cups was counted after 24 hours by plugging the entrance holes with cotton, the roaches inside euthanized, and the numbers in each cup counted.

Series [4] in a line: Release rate of attractants from sustained release delivery systems. In kind it is physicochemical. An excerpt: Several secondary release rate control systems were developed. The first was a sachet that can contain the above polymer releasing system. This sachet can be either polyvinylidine chloride (PvdC) barrier film (e.g., Saranex™) enclosed in a thermally sealed metalized polyethylene container to eliminate release of active compounds, or a metalized polyethylene sachet with a removable seal that covers a vapor diffusion controlling orifice which when removed begins the release process from the internal polymer/carrier, or metalized polyethylene sachet which contains a small vial with a vapor controlling orifice. In the case of the Saranex™ sachet, the actual porosity of the Saranex™ control release is based on type of PVdC and thickness of the film. In the case of the metalized polyethylene sachet and internal polymer/carrier, a specific orifice size controlled the rate of diffusion of the active from the device, as shown in FIG. 4. An additional means of containing and reducing the release of the liquid active compounds and providing a solid support for use in the above delivery system involved sorbing the active compounds into an inert absorbent such as Membrana GmbH's expanded microporous polyolefin Accurel® MP100 which are granular or pelletized polyethylenes that have 10-50 μm air pockets throughout and can contain up to 90% of their volume in active compounds . MP100 was easily loaded with 80% by wt active ingredient due to its porosity. […] Thus, placement into the metalized polyethylene sachet with its diffusion regulating orifice was required.
Active compounds (1 gm active in Accurel® MP100) were sealed within the metalized polyethylene sachet, and a 0.5 mm hole placed into the film, and sealed until use with a metalized tape. Release rates for propyl propanoate, methyl tiglate, and butyl hexanoate were calculated at 15.5, 11.4, and 4.8 mg/day, respectively. Longevity of this system was calculated to be 64, 87, and 208 days, respectively.
Release rates for the thermoset urethane (Flexane® 80P) and synthetic rubbers systems ranged from 0.055 to 0.2 mg/cm^2/day, depending on durometer/hardness that is a measure of polymer crosslinking. Best results were obtained at durometer/hardness levels above D30. Release rates for the Saranex system without the release control provided by the metalized polyethylene and diffusion control orifice were 187, 236, and 7 mg/day for propyl propanoate, methyl tiglate, and butyl hexanoate, respectively.

Series [5] deals with cockroach. Kind of series: Bioassays for cockroach attraction of attractants sorbed into thermoplastic polymers. The class given is in vivo. An excerpt: To alleviate the reactivity with the carrier polymers, we attempted to load active compounds into a series of thermoplastic polymers including urethanes and synthetic rubbers, based on the behavior of the active compounds as plasticizers. […] Propyl propanoate, methyl hexanoate, and methyl tiglate were loaded into a series of thermoplastic granulated feed materials, including 4-(1,1,3,3-tetramethylbutyl) with ethylene-5-ethylidenebicyclo[2.2.1]hept-2-ene-propene thermoplastic synthetic rubber (Santopren™ 203-40). Santoprene™ is a thermoplastic elastomer (TPE that is a mixture of in-situ cross linking of EPDM rubber and polypropylene compounds). Because of the longer life of Santopren™ in both extreme hot and cold environments, it is often preferred over the use of rubber. Pellethane™ 2102-55D is a polyester polycaprolactone polyurethane. Methyl hexanoate and methyl tiglate were sorbed using heat and pressure (60° C., 40 psi, 30 min) into the Santoprene® and were effective in bioassays for cockroach attraction. […] Loading rates of active compounds into the Santoprene®, using slightly elevated temperature (60° C.) and 40 psi pressure, were 8-12% by wt for the two compounds.

Setting [6] is: Charcoal absorbent, methylcellulose coated pellet, aged 1 hour in fume hood.
[7] abbreviates: charcoal controlled release formulation, aged 24 hours in fume hood.
[8] abbreviates: charcoal controlled release formulation, aged 48 hours in fume hood.

Marks after values point to notes of the source that are not given here.

Take `CCCCCCCCC(=O)OC` [Methyl Nonanoate]: the “Percent Response” value in series [1] is recorded as 45.0%. Consider `CCCCOC(C)=O` [Butyl Acetate], for which the “Percent Response” value in series [1] is on record as 45.0%.

As to `CCOC(=O)CC` [Ethyl Propanoate], in series [1], the “Percent Response” value is on record as 65.0* %. For `CCCCCCC(=O)OCCCC` [Butyl Heptanoate], the “Percent Response” value in series [1] is listed as 80.0* %; in series [2] (setting [6]), 70.0%; in series [2] (setting [7]), 61.6%; in series [2] (setting [8]) it was 58.3%. Also, the “activity in the olfactometer (in words)” value in series [2] is on record as “significantly active”. As to `CCCCOC(=O)CCC` [Butyl Butanoate], in series [1], the “Percent Response” value was 35.0** %. Same read-out and setting: as for `CCCCOC(=O)CC` [Butyl Propanoate], the figure is 15.0** %. Take `CCC(=O)OC` [Methyl Propanoate]: the “Percent Response” value in series [1] is given as 60.0%. Same read-out and setting: as for `CCCCCCCC(=O)OCCCC` [Butyl Octanoate], the figure is 55.0%; as for `CCCCCCC(=O)OC` [Methyl Heptanoate], 50.0%.

On to `CCCCCCC(=O)OCC` [Ethyl Heptanoate], for which the “Percent Response” value in series [1] is 40.0%. Still for that read-out and setting: the same measure for `CCCOC(C)=O` [Propyl acetate]: 40.0%; for `CCCC(=O)OC` [Methyl Butanoate]: 55.0%. On the same count and under the same terms, as for `CCCCC(=O)OCC` [Ethyl Pentanoate], the figure is 65.0* %. Regarding `CCCC(=O)OCC` [Ethyl Butyrate], the “Percent Response” value in series [1] came out at 63.3%. Same read-out and setting: the same measure for `CCCCCCCC(=O)OCC` [Ethyl Octanoate]: 50.0%; for `CCCCCC(=O)OCC` [Ethyl Hexanoate]: 75.0* %. For `CCCCCC(=O)OCCCC` [Butyl Hexanoate], in series [3], the “attraction to treatment harborage versus polymer blank control (in words)” value is “significant attraction and subsequent aggregation”. Moreover, the “Percent Response” value in series [1] is recorded as 75.0* %; in series [2] (setting [6]), 82.0%; in series [2] (setting [7]) it was 70.0%; in series [2] (setting [8]), 61.6%. Also, in series [2], the “activity in the olfactometer (in words)” value was “significantly active”. In addition, in series [4] (1 gm active in Accurel MP100 in metalized polyethylene sachet with 0.5 mm hole), the “Longevity of the release system” value amounted to 208 days. The Release rate in series [4] (1 gm active in Accurel MP100 in metalized polyethylene sachet with 0.5 mm hole, FIG. 3) is 4.8 mg/day; in series [4] (Saranex system without metalized polyethylene and diffusion control orifice) it was 7 mg/day. As to `CCCOC(=O)CCC` [Propyl Butanoate], the “Percent Response” value in series [1] was 35.0** %.

For the compound `CCCCCCOC(=O)CCC` [Hexyl Butanoate], the “Percent Response” value in series [1] was 35.0** %.

For `CCCCCC(=O)OC` [Methyl Hexanoate], the “Percent Response” value in series [1] was 45.0%. Besides, the “effect in bioassays for cockroach attraction (in words)” value is reported as “worked less well” in series [5] (loaded into Dow Pellethane) and “effective” in series [5] (sorbed into Santoprene (60° C., 40 psi, 30 min)). On to `CCCCC(=O)OC` [Methyl Pentanoate], for which, in series [1], the “Percent Response” value was 50.0%.

Regarding `CCCCCCCCC(=O)OCCCC` [Butyl Nonanoate], in series [1], the “Percent Response” value is recorded as 40.0%. The same measure, in the same setting: as for `CCCCCCCCCC(=O)OC` [Methyl Decanoate], the figure is 55.0%; as for `CCCCCCCCCCCC(=O)OC` [Methyl Dodecanoate], 45.0%.

As to `CCCCCCCCCCC(=O)OC` [Methyl Undecanoate], in series [1], the “Percent Response” value stood at 45.0%. Same read-out and setting: the same measure for `CCCCOC(=O)CCCC` [Butyl Pentanoate]: 50.0%.
